Reference: patent US8580825B2, “Oxadiazole inhibitors of leukotriene production” (Boehringer Ingelheim International GmbH, priority 2010, dated 2013)

Legend:
[1] = target: T1, recombinant human FLAP protein (Homo sapiens, UniProt P20292); assay: FLAP binding assay (Scintillation Proximity Assay, displacement of [125I]L-691,831); details: read-out: FLAP SPA IC50
T1 construct: made in house; host or cells: Sf9 insect cells (100,000xg membrane fraction used)
T1 sequence (P20292 1-161): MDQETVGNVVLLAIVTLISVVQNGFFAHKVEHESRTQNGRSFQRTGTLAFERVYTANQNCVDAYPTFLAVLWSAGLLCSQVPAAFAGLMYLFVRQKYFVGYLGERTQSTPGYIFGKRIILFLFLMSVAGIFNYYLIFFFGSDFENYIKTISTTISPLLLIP
In short: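 Scintillation proximity displacement of [125I]L-691,831 (0.08 nM) from membranes of sf9 cells expressing recombinant human FLAP (5 μg/well) on WGA SPA beads, pH 7.5 Tris buffer. Plates shaken 2 h before counting. Non-specific binding defined with 10 μM unlabelled L-691,831.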

[2] = tested on: synthesis of LTB4 in human whole blood; assay: human whole blood LTB4 production inhibition assay; type: cell-based; details: calcimycin stimulated, read-out: hWB LTB4 IC50
In short: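 LTB4 in plasma was quantified by HTRF immunoassay. Before that, compound-treated heparinized whole blood (15 min, 37 °C) received 20 μM final calcimycin for a further 30 min at 37 °C, followed by centrifugation at 1500×g.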

IC50 [1] | IC50 [2] | SMILES
230 nM | 880 nM | COCCn1cc(-c2nc(C(C)(C)c3ccc(-c4cnc(N)nc4)nc3)no2)cn1 [Example 89, 5-[5-(2-{5-[1-(2-methoxyethyl)-1H-pyrazol-4-yl]-1,2,4-oxadiazol-3-yl}propan-2-yl)pyridin-2-yl]pyrimidin-2-amine]
140 nM | 950 nM | COC(=O)C(C)(C)n1cc(-c2nc(C(C)(C)c3ccc(-c4cnc(N)nc4)nc3)no2)cn1 [Example 90, methyl 2-[4-(3-{2-[6-(2-aminopyrimidin-5-yl)pyridin-3-yl]propan-2-yl}-1,2,4-oxadiazol-5-yl)-1H-pyrazol-1-yl]-2-methylpropanoate]
300 nM | 1500 nM | COCCOCCn1cc(-c2nc(C(C)(C)c3ccc(-c4cnc(N)nc4)nc3)no2)cn1 [Example 91, 5-{5-[2-(5-{1-[2-(2-methoxyethoxy)ethyl]-1H-pyrazol-4-yl}-1,2,4-oxadiazol-3-yl)propan-2-yl]pyridin-2-yl}pyrimidin-2-amine]
15 nM | 92 nM | CC(C)Nc1cnc(-c2nc([C@@](C)(c3ccc(-c4cnc(N)nc4)nc3)C(C)C)no2)cn1 [Example 92, 5-[5-{(R)-1-[5-(5-Isopropylamino-pyrazin-2-yl)-[1,2,4]oxadiazol-3-yl]-1,2-dimethyl-propyl}-pridin-2-yl)-pyrimidin-2-ylamine]
21 nM | 28 nM | CC(C)Nc1cnc(-c2nc([C@](C)(c3ccc(-c4cnc(N)nc4)nc3)C(C)C)no2)cn1 [Example 93, 5-(5-{(S)-1-[5-(5-Isopropylamino-pyrazin-2-yl)-[1,2,4]oxadiazol-3-yl]-1,2-dimethyl-propyl}-pyridin-2-yl)-pyrimidin-2-ylamine]
26 nM | 74 nM | CC(C)[C@](C)(c1ccc(-c2cnc(N)nc2)nc1)c1noc(-c2cnc(NC(C)(C)CO)cn2)n1 [Example 94, 2-[5-(3-{(R)-1-[6-(2-Amino-pyrimidin-5-yl)-pyridin-3-yl]-1,2-dimethyl-propyl}-[1,2,4]oxadiazol-5-yl)-pyrazin-2-ylamino]-2-methyl-propan-1-ol]
92 nM | 210 nM | CC(C)[C@@](C)(c1ccc(-c2cnc(N)nc2)nc1)c1noc(-c2cnc(NC(C)(C)CO)cn2)n1 [Example 95, 2-[5-(3-{(S)-1-[6-(2-Amino-pyrimidin-5-yl)-pyridin-3-yl]-1,2-dimethyl-propyl}-[1,2,4]oxadiazol-5-yl)-pyrazin-2-ylamino]-2-methyl-propan-1-ol]
9.9 nM | 240 nM | CC(C)[C@](C)(c1ccc(-c2cnc(N)nc2)nc1)c1noc(-c2cnn(C3CCS(=O)(=O)C3)c2)n1 (stereo partly drawn) [Example 96, 5-[5-((R)-1-{5-[1-(1,1-Dioxo-tetrahydro-116-thiophen-3-yl)-1H-pyrazol-4-yl]-[1,2,4]oxadiazol-3-yl}-1,2-dimethyl-propyl)-pyridin-2-yl]-pyrimidin-2-ylamine]
7.9 nM | 30 nM | CC(C)[C@](C)(c1ccc(-c2cnc(N)nc2)nc1)c1noc(-c2cnn(CCN(C)C)c2)n1 [Example 97, 5-[5-((R)-1-{5-[1-(2-Dimethylamino-ethyl)-1H-pyrazol-4-yl]-[1,2,4]oxadiazol-3-yl}-1,2-dimethyl-propyl)-pyridin-2-yl]-pyrimidin-2-ylamine]
26 nM | 500 nM | CC(c1ccc(-c2ccc(N)nc2)nc1)(c1noc(-c2cn[nH]c2)n1)C1CC1 (stereo not shown) [Example 98, 5-{1-Cyclopropyl-1-[5-(1H-pyrazol-4-yl)-[1,2,4]oxadiazol-3-yl]-ethyl}-[2,3′]bipyridinyl-6′-ylamine]
32 nM | 150 nM | CN(C)CCn1cc(-c2nc([C@@](C)(c3ccc(-c4cnc(N)nc4)nc3)C3CC3)no2)cn1 [Example 99, 5-[5-((R)-1-Cyclopropyl-1-{5-[1-(2-dimethylamino-ethyl)-1H-pyrazol-4-yl]-[1,2,4]oxadiazol-3-yl}-ethyl)-pyridin-2-yl]-pyrimidin-2-ylamine]
53 nM | 210 nM | CC(C)(O)Cn1cc(-c2nc([C@@](C)(c3ccc(-c4cnc(N)cn4)nc3)C3CC3)no2)cn1 [Example 100, 1-[4-(3-{(R)-1-[6-(5-Amino-pyrazin-2-yl)-pyridin-3-yl]-1-cyclopropyl-ethyl}-[1,2,4]oxadiazol-5-yl)-pyrazol-1-yl]-2-methyl-propan-2-ol]
280 nM | 990 nM | CC(C)(O)Cn1cc(-c2nc([C@](C)(c3ccc(-c4cnc(N)cn4)nc3)C3CC3)no2)cn1 [Example 101, 1-[4-(3-{(S)-1-[6-(5-Amino-pyrazin-2-yl)-pyridin-3-yl]-1-cyclopropyl-ethyl}-[1,2,4]oxadiazol-5-yl)-pyrazol-1-yl]-2-methyl-propan-2-ol]
13 nM | 89 nM | CC(C)(C)NC(=O)Cn1cc(-c2nc([C@@](C)(c3ccc(-c4cnc(N)nc4)nc3)C3CC3)no2)cn1 [Example 102, 2-[4-(3-{(R)-1-[6-(2-Amino-pyrimidin-5-yl)-pyridin-3-yl]-1-cyclopropyl-ethyl}-[1,2,4]oxadiazol-5-yl)-pyrazol-1-yl]-N-tert-butyl-acetamide]
5.7 nM | 17 nM | COCCn1cc(-c2nc([C@@](C)(c3ccc(-c4cnc(N)cn4)nc3)C(C)C)no2)cn1 [Example 104, 5-[5-((R)-1-{5-[1-(2-Methoxy-ethyl)-1H-pyrazol-4-yl]-[1,2,4]oxadiazol-3-yl}-1,2-dimethyl-propyl)-pyridin-2-yl]-pyrazin-2-ylamine]
7.8 nM | 450 nM | CC(C)[C@](C)(c1ccc(-c2cnc(N)cn2)nc1)c1noc(-c2cnc(N3CCNCC3)cn2)n1 [Example 105, 5-(5-{(R)-1,2-Dimethyl-1-[5-(3,4,5,6-tetrahydro-2H-[1,2′]bipyrazinyl-5′-yl)-[1,2,4]oxadiazol-3-yl]-propyl}-pyridin-2-yl)-pyrazin-2-ylamine]
10 nM | 30 nM | CN(C(=O)Cn1cc(-c2nc([C@@](C)(c3ccc(-c4cnc(N)nc4)nc3)C3CC3)no2)cn1)C(C)(C)C [Example 106, 2-[4-(3-{(R)-1-[6-(2-Amino-pyrimidin-5-yl)-pyridin-3-yl]-1-cyclopropyl-ethyl}-[1,2,4]oxadiazol-5-yl)-pyrazol-1-yl]-N-tert-butyl-N-methyl-acetamide]
72 nM | 220 nM | CO[C@@H]1CCN(C(=O)Cn2cc(-c3nc([C@@](C)(c4ccc(-c5cnc(N)nc5)nc4)C4CC4)no3)cn2)C1 [Example 107, 2-[4-(3-{(R)-1-[6-(2-Amino-pyrimidin-5-yl)-pyridin-3-yl]-1-cyclopropyl-ethyl}-[1,2,4]oxadiazol-5-yl)-pyrazol-1-yl]-1-((R)-3-methoxy-pyrrolidin-1-yl)-ethanone]
360 nM | 2300 nM | COCCn1cc(-c2nc([C@](C)(c3ccc(-c4ccc(N)nc4)nc3)C3CC3)no2)cn1 [Example 108, 5-((S)-1-Cyclopropyl-1-{5-[1-(2-methoxy-ethyl)-1H-pyrazol-4-yl]-[1,2,4]oxadiazol-3-yl}-ethyl)-[2,3′]bipyridinyl-6′-ylamine]
350 nM | 1100 nM | CC(C)(O)Cn1cc(-c2nc([C@](C)(c3ccc(-c4ccc(N)nc4)nc3)C3CC3)no2)cn1 [Example 109, 1-(4-{3-[(S)-1-(6′-Amino-[2,3′]bipyridinyl-5-yl)-1-cyclopropyl-ethyl]-[1,2,4]oxadiazol-5-yl}-pyrazol-1-yl)-2-methyl-propan-2-ol]
5.9 nM | 31 nM | CC(C)[C@](C)(c1ccc(-c2cnc(N)cn2)nc1)c1noc(-c2cnn(CC(C)(C)O)c2)n1 [Example 110, 1-[4-(3-{(R)-1-[6-(5-Amino-pyrazin-2-yl)-pyridin-3-yl]-1,2-dimethyl-propyl}-[1,2,4]oxadiazol-5-yl)-pyrazol-1-yl]-2-methyl-propan-2-ol]
4.8 nM | 71 nM | CC(C)[C@](C)(c1ccc(-c2cnc(N)cn2)nc1)c1noc(-c2cnn(CC(=O)N(C)C)c2)n1 [Example 112, 2-[4-(3-{(R)-[6-(5-Amino-pyrazin-2-yl)-pyridin-3-yl]-1,2-dimethyl-propyl}-[1,2,4]oxadiazol-5-yl)-pyrazol-1-yl]-N,N-dimethyl-acetamide]
4 nM | 12 nM | CC(C)[C@](C)(c1ccc(-c2cnc(N)cn2)nc1)c1noc(-c2cnn(C3COC3)c2)n1 [Example 113, 5-(5-{(R)-1,2-Dimethyl-1-[5-(1-oxetan-3-yl-1H-pyrazol-4-yl)-[1,2,4]oxadiazol-3-yl]-propyl}-pyridin-2-yl)-pyrazin-2-ylamine]
52 nM | 850 nM | C[C@@](c1ccc(-c2ccc(N)nc2)nc1)(c1noc(-c2cnn(C(CO)CO)c2)n1)C1CC1 [Example 114, 2-(4-{3-[(R)-1-(6′-Amino-[2,3′]bipyridinyl-5-yl)-1-cyclopropyl-ethyl]-[1,2,4]oxadiazol-5-yl}-pyrazol-1-yl)-propane-1,3-diol]
24 nM | 110 nM | C[C@@](c1ccc(-c2ccc(N)nc2)nc1)(c1noc(-c2cnn(C3COC3)c2)n1)C1CC1 [Example 115, 5-{(R)-1-Cyclopropyl-1-[5-(1-oxetan-3-yl-1H-pyrazol-4-yl)-[1,2,4]oxadiazol-3-yl]-ethyl}-[2,3′]bipyridinyl-6′-ylamine]
360 nM | 2000 nM | C[C@](c1ccc(-c2ccc(N)nc2)nc1)(c1noc(-c2cnn(C3COC3)c2)n1)C1CC1 [Example 116, 5-{(S)-1-Cyclopropyl-1-[5-(1-oxetan-3-yl-1H-pyrazol-4-yl)-[1,2,4]oxadiazol-3-yl]-ethyl}-[2,3′]bipyridinyl-6′-ylamine]
